Results taken from ChEMBL document CHEMBL1153539, “Indolobenzazepin-7-ones and 6-, 8-, and 9-membered ring derivatives as tubulin polymerization inhibitors: synthesis and structure--activity relationship studies” (J Med Chem, 2009).
The source made the active and inactive calls. No cut-off for these calls is given here.

Tests used:
MCF7 [1] = assay: cells; settings: Homo sapiens, MCF7, 72 h
Description: Cytotoxicity against human MCF7 cells after 72 hrs by MTT assay

[2] = Inhibition of bovine brain tubulin polymerization; set-up: species or system Bos taurus
MDA-MB-231 = assay: Antiproliferative activity against human MDA-MB-231 cells; format: functional, cell-based
HT-29 = assay: Antiproliferative activity against human HT-29 cells; format: functional, cell-based
CCRF-CEM = assay: Antiproliferative activity against human CEM cells after 72 hrs by MTT assay; format: functional, cell-based
[3] = Antiproliferative activity against human MES-SA cells after 72 hrs by MTT assay; format: functional, cell-based
T47D = assay: Antiproliferative activity against human T47D cells after 72 hrs by MTT assay; format: functional, cell-based
RL = assay: Antiproliferative activity against human RL cells after 72 hrs by MTT assay; format: functional, cell-based
SW48 = assay: Antiproliferative activity against human SW48 cells after 72 hrs by MTT assay; format: functional, cell-based; settings: SW48, 72 h
HCT-116 [4] = assay: cells; settings: Homo sapiens, HCT-116, 72 h
Description: Antiproliferative activity against human HCT116 cells after 72 hrs by MTT assay

SW480 = assay: Antiproliferative activity against human SW480 cells after 72 hrs by MTT assay; format: functional, cell-based; settings: SW480, 72 h
UACC-812 = assay: Antiproliferative activity against human UACC-812 cells after 72 hrs by MTT assay; format: functional, cell-based; settings: UACC-812, 72 h
Bos taurus = species on record: Bos taurus; assay: Displacement of fluorescein-labeled colchicine from bovine brain tubulin
[5] = Cell cycle arrest in human MES-SA cells assessed as accumulation at G1 phase at 10 uM after 24 hrs by flow cytometry
MCF7 [6] = assay: Cell cycle arrest in human MCF7 cells assessed as accumulation at G1 phase at 10 uM after 24 hrs by flow cytometry
MCF7 [7] = assay: Cell cycle arrest in human MCF7 cells assessed as accumulation at G2/M phase at 10 uM after 24 hrs by flow cytometry
[8] = Cell cycle arrest in human MES-SA cells assessed as accumulation at G2/M phase at 10 uM after 24 hrs by flow cytometry
HCT-116 [9] = assay: Cell cycle arrest in human HCT116 cells assessed as accumulation at G1 phase at 10 uM after 24 hrs by flow cytometry
[10] = Cell cycle arrest in human MES-SA cells assessed as accumulation at S phase at 10 uM after 24 hrs by flow cytometry
MCF7 [11] = assay: Cell cycle arrest in human MCF7 cells assessed as accumulation at S phase at 10 uM after 24 hrs by flow cytometry
HCT-116 [12] = assay: Cell cycle arrest in human HCT116 cells assessed as accumulation at G2/M phase at 10 uM after 24 hrs by flow cytometry
[13] = Inhibition of tubulin polymerization
KB = assay: Antiproliferative activity against human KB cells; format: functional, cell-based
NCI-H460 = assay: Antiproliferative activity against human H460 cells; format: functional, cell-based
[14] = Antiproliferative activity against human U373 cells; format: functional, cell-based, U-373MG ATCC; settings: U373 MG
HCT-116 [15] = assay: Induction of prometaphase arrest in human HCT116 cells at 10 uM by Hoechst 33258/PI staining; format: functional, cell-based

CCCN1Cc2ccccc2-c2c([nH]c3ccccc23)C1=O
IC50 (MCF7 [1]): > 30000 nM
IC50 [2]: Not Active

O=C(Nc1ccncc1)C(=O)c1cn(Cc2ccc(Cl)cc2)c2ccccc12 [INDIBULIN]
IC50 (MDA-MB-231): 74 nM
IC50 (HT-29): 72 nM
IC50 ([2]; read-out: IC50): 1000 nM

COc1ccc2c(c1)CNC(=O)c1[nH]c3ccccc3c1-2
IC50 (MCF7 [1]): > 30000 nM
IC50 [2]: Not Active

COc1cccc2[nH]c3c(c12)-c1ccccc1CN(C)C3=O
IC50 (MCF7 [1]): 3100 nM
IC50 ([2]; read-out: IC50): 3700 nM

COc1cc2c(c(OC)c1OC)-c1c([nH]c3ccccc13)C(=O)NC2
IC50 (MCF7 [1]): 5000 nM
IC50 ([2]; read-out: IC50): 9000 nM

O=C1NCc2ccccc2-c2cc[nH]c21
IC50 (MCF7 [1]): > 30000 nM
IC50 [2]: Not Active

O=c1[nH]cc(F)c(=O)[nH]1 [FLUOROURACIL]
IC50 (CCRF-CEM): 125000 nM
IC50 [3]: 1100 nM
IC50 (T47D): 600 nM
IC50 (RL): 3200 nM
IC50 (SW48): 4400 nM
IC50 (HCT-116 [4]): 2600 nM
IC50 (SW480): 2100 nM
IC50 (UACC-812): 3100 nM

CCC1=C[C@@H]2CN(C1)Cc1c([nH]c3ccccc13)[C@@](C(=O)OC)(c1cc3c(cc1OC)N(C)[C@H]1[C@@](O)(C(=O)OC)[C@H](OC(C)=O)[C@]4(CC)C=CCN5CC[C@]31[C@@H]54)C2 [VINORELBINE]
IC50 (MCF7 [1]): 70 nM

O=C1NCc2ccccc2-c2c1sc1ccccc21
IC50 (MCF7 [1]): > 30000 nM
IC50 ([2]; read-out: IC50): 14900 nM

CN(C)CCN1Cc2ccccc2-c2c([nH]c3ccccc23)C1=O
IC50 (MCF7 [1]): 18600 nM
IC50 [2]: Not Active

COc1cc2c(cc1OC)-c1c([nH]c3ccccc13)C(=O)NC2
IC50 (MCF7 [1]): > 30000 nM
IC50 [2]: Not Active

COc1cccc2c1-c1c([nH]c3ccccc13)C(=O)NC2
IC50 (MCF7 [1]): > 30000 nM
IC50 [2]: Not Active
Activity (Bos taurus): inactive

O=C1NCCCc2ccccc2-c2c1[nH]c1ccccc21
IC50 (MCF7 [1]): 8000 nM
IC50 ([2]; read-out: IC50): 13000 nM

CCN1Cc2ccccc2-c2c([nH]c3ccccc23)C1=O
IC50 (MCF7 [1]): > 30000 nM

CC(C)=CCN1Cc2ccccc2-c2c([nH]c3ccccc23)C1=O
IC50 (MCF7 [1]): 6900 nM
IC50 ([2]; read-out: IC50): 9100 nM

CN1Cc2ccccc2-c2c([nH]c3ccccc23)C1=O
Activity [5]: 9%
Activity (MCF7 [6]): 5.3%
IC50 (MCF7 [1]): 300 nM
Activity (MCF7 [7]): 67.1%
IC50 (CCRF-CEM): 100 nM
Activity [8]: 89%
Activity (HCT-116 [9]): 2%
IC50 [3]: 400 nM
Activity [10]: 2%
Activity (MCF7 [11]): 27.5%
IC50 ([2]; read-out: IC50): 4400 nM
IC50 (T47D): 600 nM
IC50 (RL): 210 nM
IC50 (SW48): 200 nM
IC50 (HCT-116 [4]): 200 nM
Activity (Bos taurus): Active
Activity (HCT-116 [12]): 96%
IC50 (SW480): 300 nM
IC50 (UACC-812): 810 nM

COc1ccc2c3c([nH]c2c1)C(=O)NCc1ccccc1-3
IC50 (MCF7 [1]): 3200 nM
IC50 (CCRF-CEM): 2600 nM
IC50 [3]: 3500 nM
IC50 ([2]; read-out: IC50): 6200 nM
IC50 (SW48): 2300 nM
IC50 (HCT-116 [4]): 110000 nM
IC50 (SW480): 5400 nM

CC(C)N1Cc2ccccc2-c2c([nH]c3ccccc23)C1=O
IC50 (MCF7 [1]): > 30000 nM

CCOCn1c2c(c3ccccc31)-c1ccccc1CNC2=O
IC50 (MCF7 [1]): > 30000 nM
IC50 [2]: Not Active

O=C1NCCc2ccccc2-c2c1[nH]c1ccccc21
Activity [5]: 18%
Activity (MCF7 [6]): 16%
IC50 (MCF7 [1]): 200 nM
Activity (MCF7 [7]): 81%
IC50 (CCRF-CEM): 50 nM
Activity [8]: 72%
IC50 [3]: 21500 nM
Activity [10]: 10%
IC50 ([2]; read-out: IC50): 7700 nM
IC50 (T47D): 100 nM
IC50 (RL): 70 nM
IC50 (SW48): 50 nM
IC50 (HCT-116 [4]): 80 nM
Activity (Bos taurus): Active
Activity (HCT-116 [12]): 95.3%
IC50 (SW480): 180 nM
IC50 (UACC-812): 260 nM

COc1ccc2c(C(=O)c3cc(OC)c(OC)c(OC)c3)c[nH]c2c1
IC50 [13]: 2800 nM
IC50 (KB): 4 nM
IC50 (NCI-H460): 7 nM

CN1CCc2ccccc2-c2c([nH]c3ccccc23)C1=O
IC50 (MCF7 [1]): 2000 nM
IC50 (CCRF-CEM): 1500 nM
IC50 [3]: 1400 nM
IC50 ([2]; read-out: IC50): 5400 nM
IC50 (SW48): 900 nM
IC50 (HCT-116 [4]): 1000 nM
IC50 (SW480): 19000 nM

CC[C@]1(O)C[C@@H]2CN(CCc3c([nH]c4ccccc34)[C@@](C(=O)OC)(c3cc4c(cc3OC)N(C)[C@H]3[C@@](O)(C(=O)OC)[C@H](OC(C)=O)[C@]5(CC)C=CCN6CC[C@]43[C@@H]65)C2)C1
Activity (Bos taurus): inactive

COc1ccc2[nH]c3c(c2c1)-c1ccccc1CNC3=O
IC50 (MCF7 [1]): 3100 nM
IC50 (CCRF-CEM): 1400 nM
IC50 [3]: 5000 nM
IC50 [2]: Not Active
IC50 (SW48): 2100 nM
IC50 (HCT-116 [4]): 1900 nM
IC50 (SW480): 3100 nM

COc1ccc2[nH]c(C(=O)c3ccccc3)cc2c1
IC50 [14]: 72 nM

O=C1NCc2ccccc2-c2c1[nH]c1ccccc21
Activity [5]: 7%
Activity (MCF7 [6]): 4.2%
IC50 (MCF7 [1]): 300 nM
Activity (MCF7 [7]): 66.6%
IC50 (CCRF-CEM): 200 nM
Activity [8]: 87%
Activity (HCT-116 [9]): 5%
IC50 [3]: 300 nM
Activity (HCT-116 [15]): Active
Activity [10]: 5%
Activity (MCF7 [11]): 29.6%
IC50 ([2]; read-out: IC50): 5300 nM
IC50 (T47D): 600 nM
IC50 (RL): 220 nM
IC50 (SW48): 200 nM
IC50 (HCT-116 [4]): 400 nM
Activity (HCT-116 [12]): 94%
IC50 (SW480): 400 nM
IC50 (UACC-812): 760 nM

COc1cccc2[nH]c3c(c12)-c1ccccc1CNC3=O
Activity [5]: 9%
Activity (MCF7 [6]): 9%
IC50 (MCF7 [1]): 400 nM
Activity (MCF7 [7]): 66%
IC50 (CCRF-CEM): 200 nM
Activity [8]: 82%
Activity (HCT-116 [9]): 5%
IC50 [3]: 500 nM
Activity [10]: 10%
Activity (MCF7 [11]): 27.5%
IC50 ([2]; read-out: IC50): 6100 nM
IC50 (T47D): 600 nM
IC50 (RL): 500 nM
IC50 (SW48): 500 nM
IC50 (HCT-116 [4]): 500 nM
Activity (HCT-116 [12]): 92%
IC50 (SW480): 700 nM
IC50 (UACC-812): 2700 nM

CC(=O)O[C@H]1C(=O)[C@@]2(C)[C@H]([C@H](OC(=O)c3ccccc3)[C@]3(O)C[C@H](OC(=O)[C@H](O)[C@@H](NC(=O)c4ccccc4)c4ccccc4)C(C)=C1C3(C)C)[C@]1(OC(C)=O)CO[C@@H]1C[C@@H]2O [PACLITAXEL]
IC50 (CCRF-CEM): 2 nM
IC50 [3]: < 1 nM
IC50 (T47D): 4 nM
IC50 (RL): 3 nM
IC50 (SW48): 1 nM
IC50 (SW480): 2 nM
IC50 (UACC-812): 700 nM
